PubChem BioAssay AID1963837 (Molecular Pharmacology Branch, DTP, NCI, 2024)

test system: 843126-344-R-J1-PDC complex spheroid viability; test: Anticancer human tumor 843126-344-R-J1-PDC patient-derived melanoma cell line growth inhibition [POLQ]; conditions: second compound 10 µM; first compound 0.01 µM; active compounds read low
How it was run: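 Complex spheroid viability model combining PDC tumour cells with endothelial (HUVEC) and MSC stromal cells. Novobiocin, ART-558 or RP6685 were tested singly and in combination with standard and investigational anticancer drugs. Each was titrated in half-log steps from near clinical Cmax, or from 10 microM where Cmax was unknown.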
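Further: spheroids exposed to drugs for seven days before readout.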

Q: For `C=CCn1c(=O)c2cnc(Nc3ccc(N4CCN(C)CC4)cc3)nc2n1-c1cccc(C(C)(C)O)n1` + Nc1ccc(C#CCN(C(=O)Cc2ncc(C(F)(F)F)cc2C(F)(F)F)c2ccc(F)cc2)nn1, which viability, T/C is on record?
A: 83.7%

same assay, conditions: second compound 10 µM; first compound 0.0316 µM; active compounds read low

Q: Which viability, T/C does the source give for `CCc1c2c(nc3ccc(O)cc13)-c1cc3c(c(=O)n1C2)COC(=O)[C@]3(O)CC` + Nc1ccc(C#CCN(C(=O)Cc2ncc(C(F)(F)F)cc2C(F)(F)F)c2ccc(F)cc2)nn1 here?
A: 54.6%

Q: With `CCc1c2c(nc3ccc(O)cc13)-c1cc3c(c(=O)n1C2)COC(=O)[C@]3(O)CC` + Cc1cccc(N(C)C(=O)C2C(O)CCN2c2nc(C)cc(C(F)(F)F)c2C#N)c1 as the compound, how does the viability, T/C read?
A: 67%

Q: Which viability, T/C does the source give for `CCCS(=O)(=O)Nc1ccc(F)c(C(=O)c2c[nH]c3ncc(-c4ccc(Cl)cc4)cc23)c1F` + COC1C(OC(N)=O)C(O)C(Oc2ccc3c(O)c(NC(=O)c4ccc(O)c(CC=C(C)C)c4)c(=O)oc3c2C)OC1(C)C here?
A: 83.2%

Q: Which viability, T/C does the source give for `COc1cc2cc(C(=O)CCC(=O)O)sc2cc1OC` + Cc1cccc(N(C)C(=O)C2C(O)CCN2c2nc(C)cc(C(F)(F)F)c2C#N)c1 here?
A: 95.7%

Q: `C=CCn1c(=O)c2cnc(Nc3ccc(N4CCN(C)CC4)cc3)nc2n1-c1cccc(C(C)(C)O)n1` + Nc1ccc(C#CCN(C(=O)Cc2ncc(C(F)(F)F)cc2C(F)(F)F)c2ccc(F)cc2)nn1 was tested. Which viability, T/C did it give?
A: 84.5%

Q: With `Nc1ccn(C2OC(CO)C(O)C2(F)F)c(=O)n1` (configuration not stated) + Cc1cccc(N(C)C(=O)C2C(O)CCN2c2nc(C)cc(C(F)(F)F)c2C#N)c1 as the compound, how does the viability, T/C read?
A: 40.6%

Q: With `C#Cc1c(F)ccc2cc(O)cc(-c3ncc4c(N5CC6CCC(C5)N6)nc(OCC56CCCN5CC(F)C6)nc4c3F)c12` (configuration not stated) + Cc1cccc(N(C)C(=O)C2C(O)CCN2c2nc(C)cc(C(F)(F)F)c2C#N)c1 as the compound, how does the viability, T/C read?
A: 102%

same assay, conditions: second compound 10 µM; first compound 0.1 µM; active compounds read low

Q: With `CCc1c2c(nc3ccc(O)cc13)-c1cc3c(c(=O)n1C2)COC(=O)[C@]3(O)CC` + Nc1ccc(C#CCN(C(=O)Cc2ncc(C(F)(F)F)cc2C(F)(F)F)c2ccc(F)cc2)nn1 as the compound, how does the viability, T/C read?
A: 69.8%

Q: Which viability, T/C does the source give for `CCc1c2c(nc3ccc(O)cc13)-c1cc3c(c(=O)n1C2)COC(=O)[C@]3(O)CC` + Cc1cccc(N(C)C(=O)C2C(O)CCN2c2nc(C)cc(C(F)(F)F)c2C#N)c1 here?
A: 66.2%

Q: With `CCCS(=O)(=O)Nc1ccc(F)c(C(=O)c2c[nH]c3ncc(-c4ccc(Cl)cc4)cc23)c1F` + COC1C(OC(N)=O)C(O)C(Oc2ccc3c(O)c(NC(=O)c4ccc(O)c(CC=C(C)C)c4)c(=O)oc3c2C)OC1(C)C as the compound, how does the viability, T/C read?
A: 106%

Q: Which viability, T/C does the source give for `COc1cc2cc(C(=O)CCC(=O)O)sc2cc1OC` + Cc1cccc(N(C)C(=O)C2C(O)CCN2c2nc(C)cc(C(F)(F)F)c2C#N)c1 here?
A: 90.6%

Q: With `C=CCn1c(=O)c2cnc(Nc3ccc(N4CCN(C)CC4)cc3)nc2n1-c1cccc(C(C)(C)O)n1` + Nc1ccc(C#CCN(C(=O)Cc2ncc(C(F)(F)F)cc2C(F)(F)F)c2ccc(F)cc2)nn1 as the compound, how does the viability, T/C read?
A: 91.9%

Q: With `Nc1ccn(C2OC(CO)C(O)C2(F)F)c(=O)n1` (configuration not stated) + Cc1cccc(N(C)C(=O)C2C(O)CCN2c2nc(C)cc(C(F)(F)F)c2C#N)c1 as the compound, how does the viability, T/C read?
A: 41.6%

Q: How did the viability, T/C turn out when `C#Cc1c(F)ccc2cc(O)cc(-c3ncc4c(N5CC6CCC(C5)N6)nc(OCC56CCCN5CC(F)C6)nc4c3F)c12` (configuration not stated) + Cc1cccc(N(C)C(=O)C2C(O)CCN2c2nc(C)cc(C(F)(F)F)c2C#N)c1 was run?
A: 80.1%

same assay, conditions: second compound 10 µM; first compound 0.316 µM; active compounds read low

Q: Which viability, T/C does the source give for `CCc1c2c(nc3ccc(O)cc13)-c1cc3c(c(=O)n1C2)COC(=O)[C@]3(O)CC` + Nc1ccc(C#CCN(C(=O)Cc2ncc(C(F)(F)F)cc2C(F)(F)F)c2ccc(F)cc2)nn1 here?
A: 65.4%

Q: `CCc1c2c(nc3ccc(O)cc13)-c1cc3c(c(=O)n1C2)COC(=O)[C@]3(O)CC` + Cc1cccc(N(C)C(=O)C2C(O)CCN2c2nc(C)cc(C(F)(F)F)c2C#N)c1 was tested. Which viability, T/C did it give?
A: 58.6%

Q: `CCCS(=O)(=O)Nc1ccc(F)c(C(=O)c2c[nH]c3ncc(-c4ccc(Cl)cc4)cc23)c1F` + COC1C(OC(N)=O)C(O)C(Oc2ccc3c(O)c(NC(=O)c4ccc(O)c(CC=C(C)C)c4)c(=O)oc3c2C)OC1(C)C was tested. Which viability, T/C did it give?
A: 83.2%

Q: With `COc1cc2cc(C(=O)CCC(=O)O)sc2cc1OC` + Cc1cccc(N(C)C(=O)C2C(O)CCN2c2nc(C)cc(C(F)(F)F)c2C#N)c1 as the compound, how does the viability, T/C read?
A: 92.1%

Q: For `C=CCn1c(=O)c2cnc(Nc3ccc(N4CCN(C)CC4)cc3)nc2n1-c1cccc(C(C)(C)O)n1` + Nc1ccc(C#CCN(C(=O)Cc2ncc(C(F)(F)F)cc2C(F)(F)F)c2ccc(F)cc2)nn1, which viability, T/C is on record?
A: 79.1%

Q: How did the viability, T/C turn out when `Nc1ccn(C2OC(CO)C(O)C2(F)F)c(=O)n1` (configuration not stated) + Cc1cccc(N(C)C(=O)C2C(O)CCN2c2nc(C)cc(C(F)(F)F)c2C#N)c1 was run?
A: 40.7%

Q: With `C#Cc1c(F)ccc2cc(O)cc(-c3ncc4c(N5CC6CCC(C5)N6)nc(OCC56CCCN5CC(F)C6)nc4c3F)c12` (configuration not stated) + Cc1cccc(N(C)C(=O)C2C(O)CCN2c2nc(C)cc(C(F)(F)F)c2C#N)c1 as the compound, how does the viability, T/C read?
A: 95.5%

same assay, conditions: second compound 10 µM; first compound 1 µM; active compounds read low

Q: For `CCc1c2c(nc3ccc(O)cc13)-c1cc3c(c(=O)n1C2)COC(=O)[C@]3(O)CC` + Nc1ccc(C#CCN(C(=O)Cc2ncc(C(F)(F)F)cc2C(F)(F)F)c2ccc(F)cc2)nn1, which viability, T/C is on record?
A: 41%

Q: Which viability, T/C does the source give for `CCc1c2c(nc3ccc(O)cc13)-c1cc3c(c(=O)n1C2)COC(=O)[C@]3(O)CC` + Cc1cccc(N(C)C(=O)C2C(O)CCN2c2nc(C)cc(C(F)(F)F)c2C#N)c1 here?
A: 47.8%

Q: For `CCCS(=O)(=O)Nc1ccc(F)c(C(=O)c2c[nH]c3ncc(-c4ccc(Cl)cc4)cc23)c1F` + COC1C(OC(N)=O)C(O)C(Oc2ccc3c(O)c(NC(=O)c4ccc(O)c(CC=C(C)C)c4)c(=O)oc3c2C)OC1(C)C, which viability, T/C is on record?
A: 75.2%

Q: With `COc1cc2cc(C(=O)CCC(=O)O)sc2cc1OC` + Cc1cccc(N(C)C(=O)C2C(O)CCN2c2nc(C)cc(C(F)(F)F)c2C#N)c1 as the compound, how does the viability, T/C read?
A: 89.7%

Q: For `C=CCn1c(=O)c2cnc(Nc3ccc(N4CCN(C)CC4)cc3)nc2n1-c1cccc(C(C)(C)O)n1` + Nc1ccc(C#CCN(C(=O)Cc2ncc(C(F)(F)F)cc2C(F)(F)F)c2ccc(F)cc2)nn1, which viability, T/C is on record?
A: 74.5%

Q: Which viability, T/C does the source give for `Nc1ccn(C2OC(CO)C(O)C2(F)F)c(=O)n1` (configuration not stated) + Cc1cccc(N(C)C(=O)C2C(O)CCN2c2nc(C)cc(C(F)(F)F)c2C#N)c1 here?
A: 45.1%

Q: Which viability, T/C does the source give for `C#Cc1c(F)ccc2cc(O)cc(-c3ncc4c(N5CC6CCC(C5)N6)nc(OCC56CCCN5CC(F)C6)nc4c3F)c12` (configuration not stated) + Cc1cccc(N(C)C(=O)C2C(O)CCN2c2nc(C)cc(C(F)(F)F)c2C#N)c1 here?
A: 85.9%

same assay, conditions: second compound 10 µM; first compound 3.16 µM; active compounds read low

Q: How did the viability, T/C turn out when `CCCS(=O)(=O)Nc1ccc(F)c(C(=O)c2c[nH]c3ncc(-c4ccc(Cl)cc4)cc23)c1F` + COC1C(OC(N)=O)C(O)C(Oc2ccc3c(O)c(NC(=O)c4ccc(O)c(CC=C(C)C)c4)c(=O)oc3c2C)OC1(C)C was run?
A: 75.3%

Q: For `COc1cc2cc(C(=O)CCC(=O)O)sc2cc1OC` + Cc1cccc(N(C)C(=O)C2C(O)CCN2c2nc(C)cc(C(F)(F)F)c2C#N)c1, which viability, T/C is on record?
A: 90.9%

Q: How did the viability, T/C turn out when `Nc1ccn(C2OC(CO)C(O)C2(F)F)c(=O)n1` (configuration not stated) + Cc1cccc(N(C)C(=O)C2C(O)CCN2c2nc(C)cc(C(F)(F)F)c2C#N)c1 was run?
A: 43.5%

Q: `C#Cc1c(F)ccc2cc(O)cc(-c3ncc4c(N5CC6CCC(C5)N6)nc(OCC56CCCN5CC(F)C6)nc4c3F)c12` (configuration not stated) + Cc1cccc(N(C)C(=O)C2C(O)CCN2c2nc(C)cc(C(F)(F)F)c2C#N)c1 was tested. Which viability, T/C did it give?
A: 91.6%

same assay, conditions: second compound 10 µM; first compound 10 µM; active compounds read low

Q: `CCCS(=O)(=O)Nc1ccc(F)c(C(=O)c2c[nH]c3ncc(-c4ccc(Cl)cc4)cc23)c1F` + COC1C(OC(N)=O)C(O)C(Oc2ccc3c(O)c(NC(=O)c4ccc(O)c(CC=C(C)C)c4)c(=O)oc3c2C)OC1(C)C was tested. Which viability, T/C did it give?
A: 64.3%

Q: With `COc1cc2cc(C(=O)CCC(=O)O)sc2cc1OC` + Cc1cccc(N(C)C(=O)C2C(O)CCN2c2nc(C)cc(C(F)(F)F)c2C#N)c1 as the compound, how does the viability, T/C read?
A: 86.1%

Q: For `Nc1ccn(C2OC(CO)C(O)C2(F)F)c(=O)n1` (configuration not stated) + Cc1cccc(N(C)C(=O)C2C(O)CCN2c2nc(C)cc(C(F)(F)F)c2C#N)c1, which viability, T/C is on record?
A: 37.8%

Q: For `C#Cc1c(F)ccc2cc(O)cc(-c3ncc4c(N5CC6CCC(C5)N6)nc(OCC56CCCN5CC(F)C6)nc4c3F)c12` (configuration not stated) + Cc1cccc(N(C)C(=O)C2C(O)CCN2c2nc(C)cc(C(F)(F)F)c2C#N)c1, which viability, T/C is on record?
A: 61.8%
